Laboratory results published in US20240059711A1, “Cereblon Ligands and Uses Thereof” (REGENTS OF THE UNIVERSITY OF MICHIGAN, priority 2022, published 2024).

Experiments:
[1] = target: GST-tagged wild-type human CRBN protein (Homo sapiens (Human), UniProt Q96SW2); assay: Cereblon binding assay (CRBN TR-FRET, Cisbio Cereblon Binding Kit); conditions: XL665-labelled Thalidomide tracer, about 3 hours at room temperature
Protocol: The binding to cereblon (CRBN) was determined using the Cereblon Binding Kit (Cisbio, #64BDCRBNPEG) following the manufacturer's instruction. Briefly, serially diluted compounds were incubated with GST-tagged wild-type human CRBN protein, XL665-labelled Thalidomide and Europium Cryptate labelled GST antibody at room temperature for about 3 hours. Time Resolved Fluorescence Resonance Energy Transfer (TR-FRET) measurements were acquired on a CALRIOstar plate reader with MARS data analysis software (BMG Labtech), with the following settings: 665/10 nm and 620/10 nm emission, 60 μs delay and 400 μs integration. The TR-FRET ratio was taken as the 665/620 nm intensity ratio.

T47D cell line = assay: Cell growth inhibition in T47D cell line; format: cell-based; conditions: Homo sapiens
ER = ER (Homo sapiens (Human), UniProt P03372); assay: In-Cell Western (ICW) ER degradation assay in MCF-7 and T47D cell lines; format: cell-based; conditions: ER level by In-Cell Western, 16 hrs treatment; MCF-7 and T47D described, cell line not given
ER, sequence (P03372 whole entry): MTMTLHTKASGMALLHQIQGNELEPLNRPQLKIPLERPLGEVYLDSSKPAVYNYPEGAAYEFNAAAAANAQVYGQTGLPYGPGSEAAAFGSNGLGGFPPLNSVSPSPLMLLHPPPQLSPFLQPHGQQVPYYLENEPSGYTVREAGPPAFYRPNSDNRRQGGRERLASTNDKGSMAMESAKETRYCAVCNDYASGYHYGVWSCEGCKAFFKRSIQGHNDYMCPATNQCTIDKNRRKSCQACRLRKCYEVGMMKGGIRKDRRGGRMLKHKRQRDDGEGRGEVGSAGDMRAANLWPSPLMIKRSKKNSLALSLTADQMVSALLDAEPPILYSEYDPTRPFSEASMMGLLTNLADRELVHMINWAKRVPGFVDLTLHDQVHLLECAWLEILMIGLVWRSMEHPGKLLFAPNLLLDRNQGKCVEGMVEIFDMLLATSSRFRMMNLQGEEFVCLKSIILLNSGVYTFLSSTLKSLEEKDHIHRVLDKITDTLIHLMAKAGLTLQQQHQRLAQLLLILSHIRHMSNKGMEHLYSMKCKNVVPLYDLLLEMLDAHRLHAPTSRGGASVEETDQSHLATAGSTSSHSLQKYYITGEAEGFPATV
Protocol: Subsequently, cells were blocked with Intercept (PBS) Blocking Buffer (Li-COR, Odyssey Blocking Buffer), and were stained with ER (1:500, Cell signaling) primary antibody for overnight at cold room. • Day 4: Remove the buffer, add IRDye 800CW Goat anti-Rabbit IgG Secondary Antibody (1:2000) and CellTag 700 Stain (1:500) in Intercept (PBS) Blocking Buffer. Finally, cell plate is placed in incubator to dry. Image and signal were captured on Odyssey® DLx Imaging System.
In-cell western blot analysis. a. seed cells in black-sided/clear bottom 96- or 384-well plates at 40,000 or 10,000 cells/well, overnight; b. add diluted compounds (final 0.5% DMSO), 16 hours. 16 h later, remove medium, add 100 μL or 25 μL of 3.7-4.0% formaldehyde (PBS:FA=9:1), RT 20 min, no shaking; c. wash with PBS, and permeabilized with 100 μL or 25 μL/well of 1×PBS+0.1% Triton X-100 10 minutes; d. block with 100 μL or 25 μL Licor blocking buffer (Li-Cor), RT 1 h, moderate shaking; d. Add 100 μL or 25 μL of anti-ER (cs-8644, 1:500-1,000)+GAPDH (Millipore MAB374, 1:1000) in Block+0.05% Tween 20. RT 2 h, gentle shaking.
Negative control: cells plus secondary antibodies (no primary antibodies); e. wash ×4 with PBS+0.05-0.1% Tween 20, gentle shaking; f. anti-rabbit-680 and anti-mouse-800 (both 1:1000 in LiCor block+0.05% Tween20, RT 1 h, gentle shaking, no light. LI-COR: 0.2% to reduce background; g. wash ×4 with PBS+0.05% Tween 20, gentle shaking; h. add 100 μL or 25 μL of PBS to each well and read on CLX plate reader. The relative ER percentage in treated cells were obtained by comparing the values of treated wells to those in untreated and DMSO-treated wells as 100%.

GST-tagged wild-type human CRBN protein, sequence (Q96SW2 whole entry): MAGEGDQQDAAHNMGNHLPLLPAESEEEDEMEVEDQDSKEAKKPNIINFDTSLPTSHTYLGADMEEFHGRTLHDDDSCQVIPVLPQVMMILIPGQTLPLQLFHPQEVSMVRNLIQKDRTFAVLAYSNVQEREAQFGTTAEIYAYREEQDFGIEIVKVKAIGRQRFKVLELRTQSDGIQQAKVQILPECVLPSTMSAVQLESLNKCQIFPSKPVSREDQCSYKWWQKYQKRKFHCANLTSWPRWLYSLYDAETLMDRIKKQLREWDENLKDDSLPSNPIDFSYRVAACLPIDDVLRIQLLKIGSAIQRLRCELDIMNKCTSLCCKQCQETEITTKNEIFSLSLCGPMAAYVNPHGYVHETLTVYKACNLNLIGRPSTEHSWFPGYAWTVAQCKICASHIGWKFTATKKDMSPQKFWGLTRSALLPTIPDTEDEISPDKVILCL

| IC50 [1] | IC50 (T47D cell line) | DC50 (ER) | SMILES |
| --- | --- | --- | --- |
| 120 nM | – | – | O=C1CCC(N2Cc3c(ccc4c3OC[C@H](COCc3ccccc3)N4)C2=O)C(=O)N1 (stereo partly drawn) [Compound B5, 3-((S)-3-((benzyloxy)methyl)-7-oxo-3,4,7,9-tetrahydro-[1,4]oxazino[2,3-e]isoindol-8(2H)-yl)piperidine-2,6-dione] |
| 120 nM | – | – | O=C1CC[C@H](N2Cc3c(ccc4c3OC[C@H](COCc3ccccc3)O4)C2=O)C(=O)N1 [Compound B3, (S)-3-((S)-3-((benzyloxy)methyl)-7-oxo-2,3,7,9-tetrahydro-8H-[1,4]dioxino[2,3-e]isoindol-8-yl)piperidine-2,6-dione] |
| – | 1 to 10 nM | > 100 nM | O=C1CC[C@H](N2Cc3c(ccc4c3OC[C@@H](CN3CCC5(CC3)CCN(c3ccc([C@@H]6c7ccc(O)cc7CC[C@@H]6c6ccccc6)cc3)CC5)O4)C2=O)C(=O)N1 [THP-B370] |
| – | < 1 nM | 10 to 100 nM | O=C1CC[C@H](N2Cc3c(ccc4c3OC[C@@H](CN3CC5(CCN(c6ccc([C@@H]7c8ccc(O)cc8CC[C@@H]7c7ccccc7)cc6)CC5)C3)O4)C2=O)C(=O)N1 [THP-B375] |
| 5160 nM | – | – | O=C1CCC(N2C(=O)c3cc4c(cc3C2=O)O[C@@H](COCc2ccccc2)CO4)C(=O)N1 (stereo partly drawn) [Compound B14, (2S)-2-((benzyloxy)methyl)-7-(2,6-dioxopiperidin-3-yl)-2,3-dihydro-6H-[1,4]dioxino[2,3-f]isoindole-6,8(7H)-dione] |
| 410 nM | – | – | O=C1CC[C@H](N2Cc3c(ccc4c3OCC(CO)O4)C2=O)C(=O)N1 (stereo in doubt) [Compound B2, (S)-3-((S)-3-(hydroxymethyl)-7-oxo-2,3,7,9-tetrahydro-8H-[1,4]dioxino[2,3-e]isoindol-8-yl)piperidine-2,6-dione] |
| – | 1 to 10 nM | – | O=C1CC[C@H](N2Cc3c(ccc4c3OC[C@H](CN3CCC5(CC3)CCN(c3ccc([C@@H]6c7ccc(O)cc7CC[C@@H]6c6ccccc6)cc3)CC5)O4)C2=O)C(=O)N1 [THP-B392] |
| – | 1 to 10 nM | > 100 nM | O=C1CCC(N2Cc3cc4c(cc3C2=O)OC[C@H](CN2CCC3(CC2)CCN(c2ccc([C@@H]5c6ccc(O)cc6CC[C@@H]5c5ccccc5)cc2)CC3)O4)C(=O)N1 (stereo partly drawn) [THP-B391, 3-((S)-2-((9-(4-((1R,2S)-6-hydroxy-2-phenyl-1,2,3,4-tetrahydronaphthalen-1-yl)phenyl)-3,9-diazaspiro[5.5]undecan-3-yl)methyl)-6-oxo-2,3,6,8-tetrahydro-7H-[1,4]dioxino[2,3-f]isoindol-7-yl)piperidine-2,6-dione] |
| 540 nM | – | – | O=C1CC[C@H](N2Cc3c(ccc4c3O[C@@H](CO)CO4)C2=O)C(=O)N1 [Compound B6, (S)-3-((S)-2-(hydroxymethyl)-7-oxo-2,3,7,9-tetrahydro-8H-[1,4]dioxino[2,3-e]isoindol-8-yl)piperidine-2,6-dione] |
| – | < 1 nM | – | O=C1CC[C@H](N2Cc3c(ccc4c3OC[C@H](CN3CC5(CCN(c6ccc([C@@H]7c8ccc(O)cc8CC[C@@H]7c7ccccc7)cc6)CC5)C3)O4)C2=O)C(=O)N1 [THP-B393] |
| 1000 nM | – | – | O=C1CCC(N2Cc3c(ccc4c3O[C@H](CO)CO4)C2=O)C(=O)N1 (stereo partly drawn) [Compound B8, 3-((R)-2-(hydroxymethyl)-7-oxo-2,3,7,9-tetrahydro-8H-[1,4]dioxino[2,3-e]isoindol-8-yl)piperidine-2,6-dione] |
| 3000 nM | – | – | O=C1CC[C@H](N2Cc3cc4c(cc3C2=O)OC[C@H](COCc2ccccc2)O4)C(=O)N1 [Compound B12, (S)-3-((S)-2-((benzyloxy)methyl)-6-oxo-2,3,6,8-tetrahydro-7H-[1,4]dioxino[2,3-f]isoindol-7-yl)piperidine-2,6-dione] |
| 300 nM | – | – | O=C1CC[C@H](N2Cc3c(ccc4c3OCC(COCc3ccccc3)O4)C2=O)C(=O)N1 (stereo in doubt) [Compound B1, (S)-3-((S)-3-((benzyloxy)methyl)-7-oxo-2,3,7,9-tetrahydro-8H-[1,4]dioxino[2,3-e]isoindol-8-yl)piperidine-2,6-dione] |
| 7890 nM | – | – | O=C1CCC(N2C(=O)c3cc4c(cc3C2=O)OC(CO)CO4)C(=O)N1 (stereo not shown) [Compound B15, 7-(2,6-dioxopiperidin-3-yl)-2-(hydroxymethyl)-2,3-dihydro-6H-[1,4]dioxino[2,3-f]isoindole-6,8(7H)-dione] |
| – | – | > 100 nM | O=C1CC[C@H](N2Cc3c(ccc4c3OC[C@H](CN3CCC5(CC3)CCN(c3ccc([C@@H]6c7ccc(O)cc7CC[C@@H]6c6ccccc6)cc3)CC5)O4)C2=O)C(=O)N1 [THP-B387] |
| 3100 nM | – | – | O=C1CCC(N2C(=O)c3cc4c(cc3C2=O)O[C@@H](COCc2ccccc2)CO4)C(=O)N1 (stereo partly drawn) [Compound B13, (2S)-2-((benzyloxy)methyl)-7-(2,6-dioxopiperidin-3-yl)-2,3-dihydro-6H-[1,4]dioxino[2,3-f]isoindole-6,8(7H)-dione] |
| 3100 nM | – | – | O=C1CC[C@H](N2Cc3cc4c(cc3C2=O)OC[C@H](CO)O4)C(=O)N1 [Compound B11, (S)-3-((S)-2-(hydroxymethyl)-6-oxo-2,3,6,8-tetrahydro-7H-[1,4]dioxino[2,3-f]isoindol-7-yl)piperidine-2,6-dione] |
| 310 nM | – | – | O=C1CC[C@H](N2Cc3c(ccc4c3OC[C@H](CO)O4)C2=O)C(=O)N1 [Compound B4, (S)-3-((S)-3-(hydroxymethyl)-7-oxo-2,3,7,9-tetrahydro-8H-[1,4]dioxino[2,3-e]isoindol-8-yl)piperidine-2,6-dione] |
| 510 nM | – | – | O=C1CC[C@H](N2Cc3c(ccc4c3O[C@H](CO)CO4)C2=O)C(=O)N1 [Compound B7, (S)-3-((R)-2-(hydroxymethyl)-7-oxo-2,3,7,9-tetrahydro-8H-[1,4]dioxino[2,3-e]isoindol-8-yl)piperidine-2,6-dione] |
